Measured values from US10172868B2, “Substituted quinazolines for inhibiting kinase activity” (NeuPharma, Inc., priority 2013, dated 2019).

What was measured:
EGFR (ErbB1) = EGFR (ErbB1) (Homo sapiens (Human), UniProt P00533); test: Z'-LYTE kinase inhibition assay, EGFR; format: biochemical; conditions: for inhibition at 0.041 µM: read-out: % inhibition against EGFR (Compound at 0.041 μM)
In short: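 Z'-LYTE FRET assay run with 1.1-5.25 ng EGFR and 2 μM peptide substrate in 50 mM HEPES pH 7.5, 10 mM MgCl2, 2 mM MnCl2, 1 mM EGTA, 1 mM DTT, 0.01% BRIJ-35, 1% DMSO. Kinase reaction 60 min at room temperature, then 60 min development; IC50 from 10-point 3-fold titrations.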

EGFR (ErbB1) T790M L858R = EGFR (ErbB1) T790M L858R (Homo sapiens (Human), UniProt P00533, L858R/T790M); test: Z'-LYTE kinase inhibition assay, EGFR L858R/T790M; format: biochemical; conditions: for inhibition at 0.0137 µM: read-out: % inhibition against EGFR L858R/T790M (Compound at 0.0137 μM); for IC50: read-out: IC50 against EGFR L858R/T790M
Sequence of EGFR (ErbB1) T790M L858R (P00533 25-1210 T790M/L858R): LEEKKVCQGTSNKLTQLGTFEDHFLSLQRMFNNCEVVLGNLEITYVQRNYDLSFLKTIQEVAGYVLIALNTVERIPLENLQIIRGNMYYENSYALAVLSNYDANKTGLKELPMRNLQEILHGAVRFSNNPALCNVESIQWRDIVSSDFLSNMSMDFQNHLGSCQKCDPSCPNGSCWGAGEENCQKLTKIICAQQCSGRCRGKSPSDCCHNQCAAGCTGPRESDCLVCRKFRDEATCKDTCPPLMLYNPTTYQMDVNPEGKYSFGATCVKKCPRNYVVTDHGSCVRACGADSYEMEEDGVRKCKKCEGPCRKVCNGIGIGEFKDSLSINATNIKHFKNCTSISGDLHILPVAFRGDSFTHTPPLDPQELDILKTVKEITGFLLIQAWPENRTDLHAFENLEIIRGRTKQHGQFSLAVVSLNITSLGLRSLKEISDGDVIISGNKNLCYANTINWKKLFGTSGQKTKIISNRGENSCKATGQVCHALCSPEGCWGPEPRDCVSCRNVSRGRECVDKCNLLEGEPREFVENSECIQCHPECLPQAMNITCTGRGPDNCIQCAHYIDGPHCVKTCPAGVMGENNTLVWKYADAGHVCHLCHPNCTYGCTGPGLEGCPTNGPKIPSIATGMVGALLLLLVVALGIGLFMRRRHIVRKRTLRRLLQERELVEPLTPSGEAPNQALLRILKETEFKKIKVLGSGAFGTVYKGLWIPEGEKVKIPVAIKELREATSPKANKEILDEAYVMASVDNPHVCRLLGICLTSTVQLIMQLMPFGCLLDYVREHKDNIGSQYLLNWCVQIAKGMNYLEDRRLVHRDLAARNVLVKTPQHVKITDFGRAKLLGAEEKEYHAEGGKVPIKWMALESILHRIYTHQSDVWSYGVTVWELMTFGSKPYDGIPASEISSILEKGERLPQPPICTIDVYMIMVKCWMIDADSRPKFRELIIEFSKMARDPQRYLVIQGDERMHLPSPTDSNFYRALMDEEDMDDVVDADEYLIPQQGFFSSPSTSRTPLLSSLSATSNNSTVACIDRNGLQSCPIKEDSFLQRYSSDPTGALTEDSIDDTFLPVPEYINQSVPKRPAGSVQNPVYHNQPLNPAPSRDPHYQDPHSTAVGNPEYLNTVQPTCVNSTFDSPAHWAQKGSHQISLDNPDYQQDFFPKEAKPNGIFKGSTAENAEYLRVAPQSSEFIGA
In short: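 Z'-LYTE FRET peptide assay at 1% DMSO, 10-point 3-fold titrations; kinase/peptide mix in 50 mM HEPES pH 6.5, 0.01% BRIJ-35, 10 mM MgCl2, 1 mM EGTA, 0.02% NaN3. Kinase reaction ran 60 min at room temperature, followed by 60 min development and a fluorescence read. IC50 derived from the concentration series.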

A431 cells = test: cells; conditions: Homo sapiens, A-431, 72 h, read-out: IC50 in A431 cells
H1975 cells = test: Inhibition of cancer cell growth, MTT assay, H1975; conditions: Homo sapiens, NCI-H1975, 72 h, read-out: IC50 in H1975 cells
Experimental: Inhibition of cell growth by compounds was measured using MTT assay (Mosmann, T., Journal of Immunological Methods, 1983, 65, 55-63). Tumor cell lines were purchased from ATCC (American Type Culture Collection, Manassas, Va.). All cell lines were maintained in RPMI 1640 (Hyclone) supplemented with 10% fetal bovine serum (FBS, Hyclone), glutamine (2 mM, Hyclone), and antibiotics (penicillin 100 U/mL and streptomycin 50 μg/mL) at 37° C. in a humidified atmosphere of 5% CO2 in air. Taxol (as a positive control. Sigma) and compounds were dissolved in DMSO (Sigma), and the final concentration of DMSO in the medium was 1%. Tumor cells were plated in 96-well plates at densities of about 4000 cells/well of a 96-well plate and allowed to adhere/grow for 24 h. They were then treated with various concentrations of drug for 72 h, 3-(4,5-Dimethylthiazol-2-yl)-2,5-diphenyltetrazolium bromide (MTT, Sigma) was used to determine the number of viable cells at the time of compound addition and the number of cells remaining after 72 h compound exposure. The number of cells remaining after 72 h was compared to the number of viable cells at the time of compound addition by measuring the absorbance at 570 nm, allowing for the calculation of growth inhibition.
All concentrations of compounds were tested in triplicate and controls were averaged over 4 wells. IC50 was calculated by plotting the concentration of compound vs the percentage of inhibition in treated wells using GraphPad Prism 5.

Sequence of EGFR (ErbB1) (P00533 25-1210): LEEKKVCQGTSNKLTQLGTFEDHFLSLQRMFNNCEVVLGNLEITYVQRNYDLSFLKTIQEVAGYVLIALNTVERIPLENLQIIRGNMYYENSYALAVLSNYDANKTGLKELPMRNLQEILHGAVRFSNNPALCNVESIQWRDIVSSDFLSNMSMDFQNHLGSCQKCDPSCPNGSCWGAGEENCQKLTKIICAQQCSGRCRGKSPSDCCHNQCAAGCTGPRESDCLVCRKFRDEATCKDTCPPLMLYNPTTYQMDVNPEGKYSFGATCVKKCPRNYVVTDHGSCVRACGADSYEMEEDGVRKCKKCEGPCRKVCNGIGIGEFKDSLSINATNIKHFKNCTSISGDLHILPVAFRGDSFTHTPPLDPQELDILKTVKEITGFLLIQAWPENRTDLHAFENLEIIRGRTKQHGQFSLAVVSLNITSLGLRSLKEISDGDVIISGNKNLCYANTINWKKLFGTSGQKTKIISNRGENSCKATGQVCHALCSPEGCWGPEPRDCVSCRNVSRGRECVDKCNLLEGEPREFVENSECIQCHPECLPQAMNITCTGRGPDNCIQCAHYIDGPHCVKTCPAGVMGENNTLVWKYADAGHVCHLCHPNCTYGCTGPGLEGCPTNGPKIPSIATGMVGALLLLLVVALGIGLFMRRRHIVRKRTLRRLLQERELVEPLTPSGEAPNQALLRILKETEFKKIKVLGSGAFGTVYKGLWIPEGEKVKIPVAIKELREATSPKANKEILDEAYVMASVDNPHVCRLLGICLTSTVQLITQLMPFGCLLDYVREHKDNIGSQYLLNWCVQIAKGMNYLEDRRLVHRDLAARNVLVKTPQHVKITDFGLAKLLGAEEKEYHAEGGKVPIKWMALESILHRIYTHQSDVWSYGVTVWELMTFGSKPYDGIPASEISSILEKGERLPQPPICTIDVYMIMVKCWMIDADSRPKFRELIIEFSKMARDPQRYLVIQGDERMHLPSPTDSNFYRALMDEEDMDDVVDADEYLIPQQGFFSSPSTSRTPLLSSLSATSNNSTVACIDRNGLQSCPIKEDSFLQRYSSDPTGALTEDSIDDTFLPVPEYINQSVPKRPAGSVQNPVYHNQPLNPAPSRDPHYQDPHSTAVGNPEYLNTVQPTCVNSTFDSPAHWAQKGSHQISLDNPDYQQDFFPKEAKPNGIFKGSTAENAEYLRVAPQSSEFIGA

Structure (SMILES) | inhibition at 0.041 µM (EGFR (ErbB1)) [%] | inhibition at 0.0137 µM (EGFR (ErbB1) T790M L858R) [%] | IC50 (EGFR (ErbB1) T790M L858R) [nM] | IC50 (A431 cells) [nM] | IC50 (H1975 cells) [nM] | IC50 (EGFR (ErbB1); read-out: IC50 against EGFR) [nM]
C=CC(=O)Nc1cccc(-c2cccc3cnc(Nc4ccc(N[C@@H]5CCN(C)C5)cc4)nc23)c1 [Example C129, (R)-N-(3-(2-((4-((1-methylpyrrolidin-3-yl)amino)phenyl)amino)quinazolin-8-yl)phenyl)acrylamide] | > 50 | > 50 | < 100 | < 100 | < 100 | –
C=CC(=O)Nc1cccc(-c2c(F)ccc3cnc(Nc4ccc(N5CCN(C)CC5)cc4)nc23)c1 [Example C087, N-(3-(7-fluoro-2-((4-(4-methylpiperazin-1-yl)phenyl)amino)quinazolin-8-yl)phenyl)acrylamide] | > 50 | > 50 | < 100 | 100 to 500 | 100 to 500 | –
C=CC(=O)Nc1cccc(-c2cccc3cnc(Nc4ccc(N5CCN(CC(F)F)CC5)cc4)nc23)c1 [Example C056, N-(3-(2-((4-(4-(2,2-difluoroethyl)piperazin-1-yl)phenyl)amino)quinazolin-8-yl)phenyl)acrylamide] | < 50 | < 50 | – | > 500 | 100 to 500 | –
C=CC(=O)Nc1cccc(-c2cccc3cnc(Nc4ccc(N5CCN(C)CC5)c(C#N)c4)nc23)c1 [Example C074, N-(3-(2-((3-cyano-4-(4-methylpiperazin-1-yl)phenyl)amino)quinazolin-8-yl)phenyl)acrylamide] | < 50 | > 50 | < 100 | 100 to 500 | 100 to 500 | –
C=CC(=O)Nc1cccc(-c2cccc3cnc(Nc4ccc(N5CCN(C)CC5)cc4)nc23)c1C#N [Example C068, N-(2-cyano-3-(2-((4-(4-methylpiperazin-1-yl)phenyl)amino)quinazolin-8-yl)phenyl)acrylamide] | > 50 | > 50 | < 100 | > 500 | 100 to 500 | –
C=CC(=O)Nc1cccc(-c2cccc3cnc(Nc4ccc(OC5CCN(CCF)CC5)cc4)nc23)c1 [Example C136, N-(3-(2-((4-((1-(2-fluoroethyl)piperidin-4-yl)oxy)phenyl)amino)quinazolin-8-yl)phenyl)acrylamide] | < 50 | > 50 | – | < 100 | < 100 | –
C=CC(=O)Nc1cccc(-c2cccc3cnc(Nc4ccc(N5CCN(C(C)=O)CC5)cc4)nc23)c1F [Example C049, N-(3-(2-((4-(4-acetylpiperazin-1-yl)phenyl)amino)quinazolin-8-yl)-2-fluorophenyl)acrylamide] | > 50 | > 50 | < 100 | > 500 | 100 to 500 | –
C=CC(=O)Nc1cccc(-c2cccc3cnc(Nc4ccc(N5CCN(C)CC5)c(Cl)c4)nc23)c1 [Example C072, N-(3-(2-((3-chloro-4-(4-methylpiperazin-1-yl)phenyl)amino)quinazolin-8-yl)phenyl)acrylamide] | < 50 | > 50 | < 100 | 100 to 500 | 100 to 500 | –
C=CC(=O)Nc1cccc(-c2cccc3cnc(Nc4ccc(N5CCN(CCF)CC5)cc4)nc23)c1F [Example C061, N-(2-fluoro-3-(2-((4-(4-(2-fluoroethyl)piperazin-1-yl)phenyl)amino)quinazolin-8-yl)phenyl)acrylamide] | < 50 | > 50 | < 100 | > 500 | < 100 | –
C=CC(=O)Nc1cccc(-c2cccc3cnc(Nc4ccc(N5CCN(C)CC5)cc4)nc23)c1F [Example C045, N-(2-fluoro-3-(2-((4-(4-methylpiperazin-1-yl)phenyl)amino)quinazolin-8-yl)phenyl)acrylamide] | > 50 | > 50 | < 100 | 100 to 500 | < 100 | –
C=CC(=O)Nc1cccc(-c2cccc3cnc(Nc4ccc(N5CCN(C)CC5)cc4)nc23)c1OC [Example C063, N-(2-methoxy-3-(2-((4-(4-methylpiperazin-1-yl)phenyl)amino)quinazolin-8-yl)phenyl)acrylamide] | > 50 | > 50 | < 100 | > 500 | < 100 | –
C=CC(=O)Nc1cccc(-c2cccc3cnc(Nc4ccc(N5CCN(C)C(CO)C5)cc4)nc23)c1 (centres unmarked) [Example C077, N-(3-(2-((4-(3-(hydroxymethyl)-4-methylpiperazin-1-yl)phenyl)amino)quinazolin-8-yl)phenyl)acrylamide] | < 50 | > 50 | < 100 | – | < 100 | –
C=CC(=O)Nc1cccc(-c2cccc3cnc(Nc4ccc(OC5CCN(CCO)CC5)cc4F)nc23)c1 [Example C144, N-(3-(2-((2-fluoro-4-((1-(2-hydroxyethyl)piperidin-4-yl)oxy)phenyl)amino)quinazolin-8-yl)phenyl)acrylamide] | > 50 | > 50 | – | – | < 100 | –
CC(=O)N1CCN(c2ccc(Nc3ncc4cccc(-c5cccc(NC(=O)/C=C/CN(C)C)c5)c4n3)cc2)CC1 [Example C050, (E)-N-(3-(2-((4-(4-acetylpiperazin-1-yl)phenyl)amino)quinazolin-8-yl)phenyl)-4-(dimethylamino)but-2-enamide] | < 50 | > 50 | – | – | > 500 | –

Now from value to compound:

inhibition at 0.041 µM (EGFR (ErbB1)) [%] | inhibition at 0.0137 µM (EGFR (ErbB1) T790M L858R) [%] | IC50 (EGFR (ErbB1) T790M L858R) [nM] | IC50 (A431 cells) [nM] | IC50 (H1975 cells) [nM] | IC50 (EGFR (ErbB1); read-out: IC50 against EGFR) [nM] | Structure (SMILES)
> 50 | > 50 | – | > 500 | 100 to 500 | – | C=CC(=O)Nc1cccc(-c2cccc3cnc(Nc4ccc(N5CCN(C)CC5)cc4Cl)nc23)c1 [Example C043, N-(3-(2-((2-chloro-4-(4-methylpiperazin-1-yl)phenyl)amino)quinazolin-8-yl)phenyl)acrylamide]
< 50 | > 50 | – | > 500 | 100 to 500 | – | CC(=O)N1CCN(c2ccc(Nc3ncc4cccc(-c5cccc(NC(=O)/C=C/CN(C)C)c5Cl)c4n3)cc2)CC1 [Example C060, (E)-N-(3-(2-((4-(4-acetylpiperazin-1-yl)phenyl)amino)quinazolin-8-yl)-2-chlorophenyl)-4-(dimethylamino)but-2-enamide]
> 50 | > 50 | – | > 500 | 100 to 500 | – | C=CC(=O)Nc1cncc(-c2cccc3cnc(Nc4ccc(N5CCN(C)CC5)nc4)nc23)c1 [Example C047, N-(5-(2-((6-(4-methylpiperazin-1-yl)pyridin-3-yl)amino)quinazolin-8-yl)pyridin-3-yl)acrylamide]
> 50 | > 50 | < 100 | > 500 | < 100 | < 100 | C=CC(=O)Nc1cccc(-c2cccc3cnc(Nc4ccc(N5CCN(C)CC5)nc4)nc23)c1F [Example C048, N-(2-fluoro-3-(2-((6-(4-methylpiperazin-1-yl)pyridin-3-yl)amino)quinazolin-8-yl)phenyl)acrylamide]
> 50 | > 50 | < 100 | 100 to 500 | 100 to 500 | – | C=CC(=O)Nc1cc(-c2cccc3cnc(Nc4ccc(N5CCN(C)CC5)cc4)nc23)ccn1 [Example C057, N-(4-(2-((4-(4-methylpiperazin-1-yl)phenyl)amino)quinazolin-8-yl)pyridin-2-yl)acrylamide]
> 50 | > 50 | < 100 | > 500 | < 100 | – | C=CC(=O)Nc1cccc(-c2cccc3cnc(Nc4ccc(OC5CN(CCF)C5)cc4)nc23)c1 [Example C078, N-(3-(2-((4-((1-(2-fluoroethyl)azetidin-3-yl)oxy)phenyl)amino)quinazolin-8-yl)phenyl)acrylamide]
> 50 | > 50 | < 100 | 100 to 500 | < 100 | – | C=CC(=O)Nc1cccc(-c2cccc3cnc(Nc4ccc(OC5CCN(C)CC5F)cc4)nc23)c1F (centres unmarked) [Example C080, N-(2-fluoro-3-(2-((4-((3-fluoro-1-methylpiperidin-4-yl)oxy)phenyl)amino)quinazolin-8-yl)phenyl)acrylamide]
< 50 | > 50 | – | > 500 | < 100 | – | C=CC(=O)Nc1cncc(-c2cccc3cnc(Nc4ccc(N5CCN(CCF)CC5)cc4)nc23)c1 [Example C058, N-(5-(2-((4-(4-(2-fluoroethyl)piperazin-1-yl)phenyl)amino)quinazolin-8-yl)pyridin-3-yl)acrylamide]
> 50 | > 50 | – | < 100 | < 100 | – | C=CC(=O)Nc1cccc(-c2cccc3cnc(Nc4ccc(N5CCN(C)CC5)c(F)c4)nc23)c1 [Example C069, N-(3-(2-((3-fluoro-4-(4-methylpiperazin-1-yl)phenyl)amino)quinazolin-8-yl)phenyl)acrylamide]
